Activity calls are given as the source filed them. No cut-off for these calls is given here.
Experiments:
B16-F10 [1] = test: Antiproliferative activity against mouse B16-F10 cells incubated for 72 hrs by MTT assay; format: functional, cell-based; conditions: B16-F10, 72 h
B16-F10 [2] = test: Induction of antitumor immunity in mouse B16-F10 cells assessed as increase in IFN-gamma level incubated for 24 hrs by Western blot analysis; format: functional, cell-based; conditions: dose 2.5-10 µM
B16-F10 [3] = test: Induction of cell cycle arrest in mouse B16-F10 cells assessed as cell accumulation incubated for 24 hrs by PI staining based flow cytometry; format: functional; conditions: dose 2.5-10 µM
B16-F10 [4] = test: Induction of apoptosis in mouse B16-F10 cells assessed as late-stage apoptosis at 2.5 uM incubated for 48 hrs by Annexin V-FITC/PI staining based flow cytometry relative to control; format: functional
4T1 = test: cells; format: functional; conditions: Mus musculus, time 72 hrs
B16-F10 [5] = test: Induction of antitumor immunity in mouse B16-F10 cells assessed as reduction in PD-L1 level incubated for 24 hrs by Western blot analysis; format: functional, cell-based; conditions: dose 2.5-10 µM
[6] = target: T1, Histone deacetylase 3 (Mus musculus) (UniProt O88895); test: Inhibition of HDAC3 in mouse B16-F10 cells assessed as reduction in PD-L1 level at 2.5 uM incubated for 24 hrs by immunofluorescence based analysis; format: cell-based
T1 sequence (whole entry): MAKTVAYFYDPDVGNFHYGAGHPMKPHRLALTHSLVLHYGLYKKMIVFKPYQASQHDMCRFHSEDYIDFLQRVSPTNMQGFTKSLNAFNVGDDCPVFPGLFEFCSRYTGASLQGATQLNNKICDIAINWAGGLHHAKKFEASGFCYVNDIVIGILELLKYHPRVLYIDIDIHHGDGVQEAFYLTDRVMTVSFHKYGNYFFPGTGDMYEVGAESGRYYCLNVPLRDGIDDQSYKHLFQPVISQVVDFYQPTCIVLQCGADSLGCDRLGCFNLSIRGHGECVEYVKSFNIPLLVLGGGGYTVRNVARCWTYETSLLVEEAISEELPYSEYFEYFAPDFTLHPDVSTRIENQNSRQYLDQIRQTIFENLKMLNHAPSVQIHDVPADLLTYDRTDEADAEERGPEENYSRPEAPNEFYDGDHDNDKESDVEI

Histone deacetylase 3 = Histone deacetylase 3 (Homo sapiens, UniProt O15379); test: Inhibition of HDAC3 (unknown origin)
Histone deacetylase 3, sequence (O15379 whole entry): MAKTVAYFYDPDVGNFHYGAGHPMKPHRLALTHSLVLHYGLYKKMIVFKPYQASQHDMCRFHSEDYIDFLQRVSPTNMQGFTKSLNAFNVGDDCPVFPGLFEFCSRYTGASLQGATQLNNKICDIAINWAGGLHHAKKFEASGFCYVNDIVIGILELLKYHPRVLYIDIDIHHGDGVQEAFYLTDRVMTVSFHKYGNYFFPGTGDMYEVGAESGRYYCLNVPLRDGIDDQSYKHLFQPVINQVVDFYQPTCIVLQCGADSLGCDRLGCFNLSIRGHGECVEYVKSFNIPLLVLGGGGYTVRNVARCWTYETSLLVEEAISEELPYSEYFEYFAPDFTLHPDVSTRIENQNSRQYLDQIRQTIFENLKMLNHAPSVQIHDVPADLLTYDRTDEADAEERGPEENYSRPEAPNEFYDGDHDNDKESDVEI

SK-OV-3 [7] = test: cells; format: functional; conditions: Homo sapiens, time 72 hrs
HCT-116 = test: Antiproliferative activity against human HCT-116 cells incubated for 72 hrs by MTT assay; format: functional, cell-based; conditions: HCT-116, 72 h
B16-F10 [8] = test: Inhibition of cell invasion in mouse B16-F10 cells at 5 uM by transwell assay relative to control; format: functional
[9] = Antiproliferative activity against human HK-2 cells incubated for 72 hrs by MTT assay
Histone deacetylase 8 = target: T2, Histone deacetylase 8 (Homo sapiens, UniProt Q9BY41); test: Inhibition of HDAC8 (unknown origin)
T2 sequence (Q9BY41 whole entry): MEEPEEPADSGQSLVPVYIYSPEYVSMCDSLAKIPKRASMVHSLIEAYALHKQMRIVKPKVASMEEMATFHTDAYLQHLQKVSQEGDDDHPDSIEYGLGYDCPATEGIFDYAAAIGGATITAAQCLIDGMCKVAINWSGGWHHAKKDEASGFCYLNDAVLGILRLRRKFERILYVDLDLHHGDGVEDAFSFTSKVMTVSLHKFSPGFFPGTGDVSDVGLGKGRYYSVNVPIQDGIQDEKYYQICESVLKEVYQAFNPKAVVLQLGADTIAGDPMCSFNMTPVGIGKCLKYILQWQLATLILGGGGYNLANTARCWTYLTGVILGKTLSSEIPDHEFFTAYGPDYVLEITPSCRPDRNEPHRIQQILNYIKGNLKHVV

K562 = test: cells; format: functional; conditions: Homo sapiens, time 72 hrs
B16-F10 [10] = test: Inhibition of cell migration in mouse B16-F10 cells at 5 uM by transwell assay relative to control; format: functional
B16-F10 [11] = test: Induction of apoptosis in mouse B16-F10 cells assessed as late-stage apoptosis at 5 uM incubated for 48 hrs by Annexin V-FITC/PI staining based flow cytometry relative to control; format: functional
B16-F10 [12] = test: cells; format: functional; conditions: Mus musculus, time 72 hrs
SK-OV-3 [13] = test: Antiproliferative activity against human SK-OV-3 cells incubated for 72 hrs by MTT assay; format: functional, cell-based; conditions: SK-OV-3, 72 h
[14] = target: T1, Histone deacetylase 3 (Mus musculus); test: Inhibition of HDAC3 in mouse B16-F10 cells assessed as increase in Ac-H3K56 level at 2.5 to 10 uM incubated for 24 hrs by Western blot analysis; format: cell-based; conditions: dose 2.5-10 µM
[15] = target: T1, Histone deacetylase 3 (Mus musculus); test: Inhibition of HDAC3 in mouse B16-F10 cells assessed as increase in Ac-H3 level at 2.5 uM incubated for 24 hrs by immunofluorescence based analysis; format: cell-based
Histone deacetylase 1 = Histone deacetylase 1 (Homo sapiens, UniProt Q13547); test: Inhibition of HDAC1 (unknown origin)
Histone deacetylase 1, sequence (Q13547 whole entry): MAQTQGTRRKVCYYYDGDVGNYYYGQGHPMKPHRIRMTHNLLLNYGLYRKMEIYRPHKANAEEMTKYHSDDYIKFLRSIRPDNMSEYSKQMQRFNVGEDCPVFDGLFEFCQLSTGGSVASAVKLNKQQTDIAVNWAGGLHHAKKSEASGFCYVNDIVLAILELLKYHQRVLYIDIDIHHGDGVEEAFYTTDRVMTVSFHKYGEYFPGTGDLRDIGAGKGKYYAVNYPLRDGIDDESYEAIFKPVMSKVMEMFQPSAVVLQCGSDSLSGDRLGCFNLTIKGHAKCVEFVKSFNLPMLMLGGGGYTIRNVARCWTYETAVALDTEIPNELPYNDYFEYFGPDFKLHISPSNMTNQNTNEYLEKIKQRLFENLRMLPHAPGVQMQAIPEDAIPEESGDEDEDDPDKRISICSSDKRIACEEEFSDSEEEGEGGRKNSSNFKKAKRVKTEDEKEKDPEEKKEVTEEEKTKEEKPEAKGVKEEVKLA

Structure (SMILES)	IC50 (B16-F10 [1])	Activity (B16-F10 [2])	Activity (B16-F10 [3])	Activity (B16-F10 [4])	inhibition at 10 µM (4T1)	Activity (B16-F10 [5])	inhibition [6]	IC50 (Histone deacetylase 3)	inhibition at 10 µM (SK-OV-3 [7])	IC50 (HCT-116)	inhibition at 5 µM (B16-F10 [8])	IC50 at 72 h [9]	IC50 (Histone deacetylase 8)	inhibition at 10 µM (K562)	inhibition at 5 µM (B16-F10 [10])	Activity (B16-F10 [11])	inhibition at 10 µM (B16-F10 [12])	IC50 (SK-OV-3 [13])	inhibition [14]	inhibition [15]	also measured
CCCNNC(=O)c1ccc(NC(=O)c2cnc(-c3ccc(OC(F)(F)F)cc3)s2)cc1	6.07 µM	Dose-dependent-effect; Activity Was Similar To Ms-275	Dose-dependent-effect	24%	32.8%	Dose-dependent-effect; Activity Was Similar To Ms-275	Active	0.4 µM	< 50%	1.67 µM	> 70%	10.9 µM	> 10 µM	52.6%	> 70%	45.8%	54.7%	8.37 µM	Active	Active	IC50 (Histone deacetylase 1): 1.57 µM
CCCNNC(=O)CCCCCCNC(=O)c1cnc(-c2ccc(NC(=O)OC(C)(C)C)cc2)s1	5.22 µM	Dose-dependent-effect; Activity Was Similar To Ms-275	Dose-dependent-effect	20.6%	33.1%	Dose-dependent-effect; Activity Was Similar To Ms-275	Active	0.31 µM	< 50%	3.31 µM	> 70%	11.5 µM	> 10 µM	73.1%	> 70%	43.5%	60.7%	5.76 µM	Active	Active	IC50 (Histone deacetylase 1): 4.68 µM
